Drawing on patent publication US12558428B2, “Heterobifunctional compounds and their use in treating disease” (Halda Therapeutics OpCo, Inc., priority 2024, dated 2026), this text covers GI50 for twelve molecules.

One may read the GI50 as the concentration giving 50% growth inhibition.

Read-outs that look alike come from different tables or passages of the source. Some results are limits rather than exact numbers.

Common to all, as to assay type: cell-based
Assay [1] deals with T-Rex 293 cells lacking increased expression of estrogen receptor alpha protein. Description: Cellular growth inhibition assay, T-Rex 293 cells, (−) doxycycline. To be noted: T-REx-293, 72 h, 72 hours. A digest of the protocol:
(§1)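 Cells of an inducible ERα-expressing T-Rex 293 clone are seeded in charcoal-dextran FBS medium with or without 3 ng/mL doxycycline, then treated after 24 h with compound dilutions (0.5% DMSO) for 72 h. Growth inhibition is measured by CellTiter-Glo luminescence and expressed as GI50.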

The subject of assay [2] is T-Rex 293 cells having increased expression of estrogen receptor alpha protein. Description: Cellular growth inhibition assay, T-Rex 293 cells, (+) doxycycline. Particulars: T-REx-293, 72 h, 72 hours. A digest of the protocol: as §1
The test system of assay [3] is MCF7 cells (ATCC #HTB-22). Description: Cellular growth inhibition assay, MCF7 cells purchased from ATCC. Particulars: Homo sapiens, MCF7, 144 h, Table 8-A; MCF7 cells purchased from ATCC; six days; CellTiter-Glo; read-out: GI50. Here is the method:
Exemplary compounds were tested for the ability to inhibit the proliferation of MCF7 cells.
MCF7 cells (ATCC #HTB-22 or ECACC #86012803) were cultured in RPMI 1640 medium supplemented with 10% heat-inactivated fetal bovine serum, 1% pen-strep, and 0.2 U/ml insulin. Cells were seeded in 25 μL of RPMI 1640 medium supplemented with 10% heat-inactivated fetal bovine serum, 1% pen-strep, 0.2 U/ml insulin in poly-D-lysine treated, black clear-bottom 384-well plates at 225 cells/well for MCF7 cells purchased from ECACC or 1,500 cells/well for MCF7 cells purchased from ATCC. Following seeding, plates were spun at 300×g for 30 seconds and cultured at 37° C. with 5% CO2 in a humidified tissue culture incubator.
At 24 hours after seeding, compounds were titrated in 100% DMSO and diluted in RPMI 1640 medium supplemented with 10% heat-inactivate fetal bovine serum, 1% pen-strep, and 0.2 U/ml insulin. A 25 μL aliquot of the compound/media mixture was added to cells, bringing the total volume in each well to 50 μL. An equal volume of DMSO without compound was used as a negative control. After treatment, plates were spun at 300×g for 30 seconds, then cultured at 37° C. with 5% CO2 for six days in a humidified tissue culture incubator.
On Day 6 of treatment, cell viability was quantified with CellTiter-Glo 2.0 reagent (Promega). Plates were equilibrated to room temperature for 30 minutes, then 25 μL of CellTiter-Glo 2.0 reagent was added to cells, bringing the total volume in each well to 75 μL. After reagent was added, plates were mixed on a shaker for two minutes at 500 rpm and then incubated at room temperature for 10 minutes. Following incubation, plates were spun at 3,000×g for 30 seconds, sealed with an optical adhesive cover, and luminescence readings were measured with an EnVision Plate Reader.
Data was normalized to 0 luminescence for baseline. A four-parameter, non-linear regression curve fit was applied to dose-response data in GraphPad Prism data analysis software to determine the half maximal growth inhibitory concentration (GI50) for each compound.
For orientation: Cellular ATP, detected with luciferase, serves as a proxy for viable cell number.

Setting [4] is: T-Rex 293 cells without doxycycline, CellTiter-Glo 2.0, read-out: (−) Dox TRex ERa (GI50).
[5] abbreviates: T-Rex 293 cells with doxycycline-induced ERα expression, CellTiter-Glo 2.0, read-out: (+) Dox TRex ERa (GI50).

As to `Cc1sc2c(c1C)C(c1ccc(OC3CC4(CCN(CCOc5ccc(C(=O)c6c(-c7ccc(O)cc7)sc7cc(O)ccc67)cc5)CC4)C3)cc1)=N[C@@H](Cc1ncco1)c1nnc(C)n1-2` [I-10, (S)-(6-hydroxy-2-(4-hydroxyphenyl)benzo[b]thiophen-3-yl)(4-(2-(2-(4-(2,3,9-trimethyl-6-(oxazol-2-ylmethyl)-6H-thieno[3,2-f][1,2,4]triazolo[4,3-a][1,4]diazepin-4-yl)phenoxy)-7-azaspiro[3.5]nonan-7-yl)ethoxy)phenyl)methanone], the GI50 in assay [1] (setting [4]), in assay [2] (setting [5]) and in assay [3] was < 0.05 µM each time.
With `Cn1cc(-c2cc(C(C)(C)O)ccc2Oc2ccc(N3CC(CC4CCN(CCOc5ccc(C(=O)c6c(-c7ccc(O)cc7)sc7cc(O)ccc67)cc5)CC4)C3)cc2)c2cc[nH]c2c1=O` [I-11, 4-(2-(4-(3-((1-(2-(4-(6-hydroxy-2-(4-hydroxyphenyl)benzo[b]thiophene-3-carbonyl)phenoxy)ethyl)piperidin-4-yl)methyl)azetidin-1-yl)phenoxy)-5-(2-hydroxypropan-2-yl)phenyl)-6-methyl-1,6-dihydro-7H-pyrrolo[2,3-c]pyridin-7-one], the GI50 in assay [1] (setting [4]), in assay [2] (setting [5]) and in assay [3] was < 0.05 µM in each case.
For `Cc1sc2c(c1C)C(c1ccc(N3CCN(CC4CCN(c5ccc([C@@H]6c7ccc(O)cc7CC[C@@H]6c6ccccc6)cc5)CC4)CC3)cc1)=N[C@@H](Cc1ncco1)c1nnc(C)n1-2` [I-12, (5R,6S)-6-phenyl-5-(4-(4-((4-(4-((S)-2,3,9-trimethyl-6-(oxazol-2-ylmethyl)-6H-thieno[3,2-f][1,2,4]triazolo[4,3-a][1,4]diazepin-4-yl)phenyl)piperazin-1-yl)methyl)piperidin-1-yl)phenyl)-5,6,7,8-tetrahydronaphthalen-2-ol], the GI50 in assay [1] (Table 7-A, T-Rex 293 cells without doxycycline (lacking increased ERα expression), CellTiter-Glo, read-out: (−) Dox GI50) was 0.5 to 2.5 µM; in assay [2] (Table 7-A, T-Rex 293 cells with doxycycline (increased ERα expression), CellTiter-Glo, read-out: (+) Dox GI50), < 0.05 µM; in assay [3] it was < 0.05 µM.
On to `Cc1sc2c(c1C)C(c1ccc(OCCC3CCN(CCOc4ccc(C(=O)c5c(-c6ccc(O)cc6)sc6cc(O)ccc56)cc4)CC3)cc1)=N[C@@H](Cc1ncco1)c1nnc(C)n1-2` [I-13, (S)-(6-hydroxy-2-(4-hydroxyphenyl)benzo[b]thiophen-3-yl)(4-(2-(4-(2-(4-(2,3,9-trimethyl-6-(oxazol-2-ylmethyl)-6H-thieno[3,2-f][1,2,4]triazolo[4,3-a][1,4]diazepin-4-yl)phenoxy)ethyl)piperidin-1-yl)ethoxy)phenyl)methanone], for which the figures for the GI50 in assay [1] (setting [4]), in assay [2] (setting [5]) and in assay [3] were 0.05 to 0.5 µM, < 0.05 µM and < 0.05 µM, respectively.
For the molecule `Cc1sc2c(c1C)C(c1ccc(OCCCCC3CCN(c4ccc(C(=O)c5c(-c6ccc(Br)cc6)sc6cc(O)ccc56)cc4)CC3)cc1)=N[C@@H](Cc1ncco1)c1nnc(C)n1-2` [I-14, (S)-(2-(4-bromophenyl)-6-hydroxybenzo[b]thiophen-3-yl)(4-(4-(4-(4-(2,3,9-trimethyl-6-(oxazol-2-ylmethyl)-6H-thieno[3,2-f][1,2,4]triazolo[4,3-a][1,4]diazepin-4-yl)phenoxy)butyl)piperidin-1-yl)phenyl)methanone], the values for the GI50 in assay [1] (setting [4]), in assay [2] (setting [5]) and in assay [3] were > 2.5 µM, 0.05 to 0.5 µM and 0.5 to 2.5 µM, respectively.
For the molecule `Cc1sc2c(c1C)C(c1ccc(OCCC3CCN(c4ccc(C(=O)c5c(-c6ccc(O)cc6)sc6cc(O)ccc56)cc4)CC3)cc1)=N[C@@H](Cc1ncco1)c1nnc(C)n1-2` [I-15, (S)-(6-hydroxy-2-(4-hydroxyphenyl)benzo[b]thiophen-3-yl)(4-(4-(2-(4-(2,3,9-trimethyl-6-(oxazol-2-ylmethyl)-6H-thieno[3,2-f][1,2,4]triazolo[4,3-a][1,4]diazepin-4-yl)phenoxy)ethyl)piperidin-1-yl)phenyl)methanone], the GI50 in assay [1] (setting [4]), in assay [2] (setting [5]) and in assay [3] was < 0.05 µM each time.
`Cc1sc2c(c1C)C(c1ccc(Cl)cc1)=N[C@@H](CC(=O)NCCCCCCCOc1ccc(C(=O)c3c(-c4ccc(O)cc4)sc4cc(O)ccc34)cc1)c1nnc(C)n1-2` [I-16, (S)-2-(4-(4-chlorophenyl)-2,3,9-trimethyl-6H-thieno[3,2-f][1,2,4]triazolo[4,3-a][1,4]diazepin-6-yl)-N-(7-(4-(6-hydroxy-2-(4-hydroxyphenyl)benzo[b]thiophene-3-carbonyl)phenoxy)heptyl)acetamide]: the figures for the GI50 in assay [1] (setting [4]), in assay [2] (setting [5]) and in assay [3] were > 2.5 µM, > 2.5 µM and 0.05 to 0.5 µM, respectively.
Turning to `Cc1sc2c(c1C)C(c1ccc(Cl)cc1)=N[C@@H](CC(=O)NCCCCOCCOc1ccc(C(=O)c3c(-c4ccc(O)cc4)sc4cc(O)ccc34)cc1)c1nnc(C)n1-2` [I-17, (S)-2-(4-(4-chlorophenyl)-2,3,9-trimethyl-6H-thieno[3,2-f][1,2,4]triazolo[4,3-a][1,4]diazepin-6-yl)-N-(4-(2-(4-(6-hydroxy-2-(4-hydroxyphenyl)benzo[b]thiophene-3-carbonyl)phenoxy)ethoxy)butyl)acetamide], the GI50 in assay [1] (setting [4]) lay in the range of 0.5 to 2.5 µM; in assay [2] (setting [5]) it was 0.5 to 2.5 µM; in assay [3], 0.05 to 0.5 µM.
Take `Cc1sc2c(c1C)C(c1ccc(CC3CC4(CCN(CCOc5ccc(C(=O)c6c(-c7ccc(O)cc7)sc7cc(O)ccc67)cc5)CC4)C3)cc1)=N[C@@H](C)c1nnc(C)n1-2` [I-19, (S)-(6-hydroxy-2-(4-hydroxyphenyl)benzo[b]thiophen-3-yl)(4-(2-(2-(4-(2,3,6,9-tetramethyl-6H-thieno[3,2-f][1,2,4]triazolo[4,3-a][1,4]diazepin-4-yl)benzyl)-7-azaspiro[3.5]nonan-7-yl)ethoxy)phenyl)methanone]: the GI50 is 0.05 to 0.5 µM in assay [1] (setting [4]), < 0.05 µM in assay [2] (setting [5]) and < 0.05 µM in assay [3].
As for `Cc1sc2c(c1C)C(c1ccc(C#CC3CC4(CCN(CCOc5ccc(C(=O)c6c(-c7ccc(O)cc7)sc7cc(O)ccc67)cc5)CC4)C3)cc1)=N[C@@H](Cc1ncco1)c1nnc(C)n1-2` [I-20, (S)-(6-hydroxy-2-(4-hydroxyphenyl)benzo[b]thiophen-3-yl)(4-(2-(2-((4-(2,3,9-trimethyl-6-(oxazol-2-ylmethyl)-6H-thieno[3,2-f][1,2,4]triazolo[4,3-a][1,4]diazepin-4-yl)phenyl)ethynyl)-7-azaspiro[3.5]nonan-7-yl)ethoxy)phenyl) methanone], the GI50 in assay [1] (setting [4]), in assay [2] (setting [5]) and in assay [3] was < 0.05 µM in each case.
In the case of `Cc1sc2c(c1C)C(c1ccc(OCCCCC3CCN(c4ccc(C(=O)c5c(-c6ccc(O)cc6)sc6cc(O)ccc56)cc4)CC3)cc1)=N[C@@H](Cc1ncco1)c1nnc(C)n1-2` [I-21, (S)-(6-hydroxy-2-(4-hydroxyphenyl)benzo[b]thiophen-3-yl)(4-(4-(4-(4-(2,3,9-trimethyl-6-(oxazol-2-ylmethyl)-6H-thieno[3,2-f][1,2,4]triazolo[4,3-a][1,4]diazepin-4-yl)phenoxy)butyl)piperidin-1-yl)phenyl)methanone], the GI50 in assay [1] (setting [4]) is 0.05 to 0.5 µM; in assay [2] (setting [5]) it was < 0.05 µM; in assay [3], < 0.05 µM.
Turning to `Cn1cc(-c2cc(C(C)(C)O)ccc2Oc2ccc(N3CC(CC4CCN(c5ccc(C(=O)c6c(-c7ccc(O)cc7)sc7cc(O)ccc67)cc5)CC4)C3)cc2)c2cc[nH]c2c1=O` [I-22, 4-(2-(4-(3-((1-(4-(6-hydroxy-2-(4-hydroxyphenyl)benzo[b]thiophene-3-carbonyl)phenyl)piperidin-4-yl)methyl)azetidin-1-yl)phenoxy)-5-(2-hydroxy-propan-2-yl)phenyl)-6-methyl-1,6-dihydro-7H-pyrrolo[2,3-c]pyridin-7-one], the GI50 in assay [1] (setting [4]) was 0.05 to 0.5 µM; in assay [2] (setting [5]), < 0.05 µM; in assay [3] it was < 0.05 µM.
